# Source: US12419305B2, “Antimicrobial compositions” (Firmenich SA, priority 2018, dated 2025)
# Like-named read-outs stand apart in the source and are kept apart here.
# Test system: S. haemolyticus 114126
# Experiment: BCT test (bacterial contact time), 120 s, log reduction / effect fraction; CI by Compusyn
# Format: cell-based
# Settings: Staphylococcus haemolyticus, 114126, 2 min; for log reduction at 0.1 % strength: dose 0.1% w/v; for log reduction at 0.125 % strength: dose 0.125% w/v; for log reduction at 0.15 % strength: dose 0.15% w/v; for log reduction at 0.2 % strength: dose 0.2% w/v; for log reduction at 0.35 % strength: dose 0.35% w/v; for log reduction at 0.5 % strength: dose 0.5% w/v; for log reduction at 1 % strength: dose 1.0% w/v; for log reduction at 1.25 % strength: dose 1.25% w/v; for log reduction at 1.5 % strength: dose 1.5% w/v; for log reduction at 0.05 % strength: dose 0.05% w/v
# Experimental: S. haemolyticus: Suspensions of the S. haemolyticus 114126 strain, isolated from skin, were prepared as follows: Stock cultures (stored at −80° C.) were thawed and sub-cultured onto TSA-TW80 agar plate media, and incubated at 37° C. for 24 h to obtain single colonies. Single colonies of the primary cultures were streaked onto fresh TSA-TW80 plates and incubated at 37° C. for 24 h to prepare secondary cultures. Single colonies of secondary cultures were picked and used to inoculate 50 mL of BHI-TW80 broth. The inoculated broth was incubated at 37° C. at 180 rpm for 18 h. Aliquots (0.5 ml) of the 18 h culture were inoculated into 50 ml of fresh BHI-TW80 broth, and incubated at 37° C. at 180 rpm for approximately 3 hours. When the OD 600 nm value of the broth reached 1-2, cells were harvested by centrifugation at 5000 rpm for 10 min, and then resuspended in fresh BHI-TW80 broth at a concentration of 1-5×10^8 CFU/mL. This suspension was used as the bacterial suspension for the BCT test.
# BCT Test: Test compositions at a range of concentrations (either combinations of more than one perfume ingredient, and comparative compositions comprising the single perfume ingredients) were prepared in ethanol. Five replicates of each test composition were added into 96-well microtiter plates (120 μl per well), with row B containing control compositions containing the ethanol solution alone. 120 μl of bacterial cell suspensions at a concentration of approximately 1×10^8 bacteria per mL (as prepared above) were added to each well of the microtiter plate. The bacterial suspensions were incubated with the test solutions for 45, 60, or 120 seconds. Following the incubation of the bacterial suspensions with the test solutions, serial dilutions of the bacterial suspensions were generated (three serial 1:10 dilutions, followed by 17 serial 1:2 dilutions), in multiwell microtiter plates.
# Each plate was sealed and incubated at 37° C. under agitation (180 rpm). After incubation, the turbidity of the wells (OD600 nm) was determined using a Tecan microplate reader. Turbid wells were regarded as positive growth, due to the presence of viable cells. The total number of viable cells (log CFU) for each sample was calculated. And the log reduction for each test composition at the final concentration (dose) was calculated against the control sample of the ethanol solution.
# Determination of Synergy via the Combination Index (CI): The CI was calculated using Compusyn software (ComboSyn, Inc., as created by Dr. Dorothy Chou in 2005), according to the manufacturer's instructions. The concentration of each test composition (combinations of more than one perfume ingredient, and comparative compositions comprising the single perfume ingredients used to generate the combination) and their corresponding effect fraction was entered, and the corresponding CI calculated.
# When the calculated CI values were less than 0.9, the combination of perfume ingredients was regarded as having synergistic effect. When the calculated CI was between 1.0 a 0.9, the combination of perfume ingredients was regarded as having an additive effect. When the calculated CI was greater than 1.0, the combination of perfume ingredients was regarded as having an antagonistic effect.
# [1] = dose 0.175% w/v, contact 120 s, 25% EtOH, read-out: Log reduction
# [2] = dose 0.25% w/v, contact 120 s, 25% EtOH, read-out: Log reduction
# [3] = dose 0.3% w/v, contact 120 s, 25% EtOH, read-out: Log reduction
# [4] = dose 0.4% w/v, contact 120 s, 25% EtOH, read-out: Log reduction
smiles,measurement,setting,value
CCCCCCC1CCC(=O)O1 (centres unmarked) [Decal],log reduction at 0.1 % strength,"contact 120 s, 25% EtOH",0.5
same,log reduction at 0.125 % strength,"contact 120 s, 25% EtOH",0.7
same,log reduction at 0.15 % strength,"contact 120 s, 25% EtOH",1.2
same,log reduction at 0.175 % strength,[1],3.2
same,log reduction at 0.2 % strength,"contact 120 s, 25% EtOH",4.5
"C/C=C/c1ccc(O)c(OC)c1 [Isoeugenol, 2-Methoxy-4-(prop-1-en-1-yl)phenol]",log reduction at 0.15 % strength,"contact 120 s, 25% EtOH",-0.3
same,log reduction at 0.2 % strength,"contact 120 s, 25% EtOH",0.5
same,log reduction at 0.25 % strength,[2],2.2
same,log reduction at 0.3 % strength,[3],3.7
same,log reduction at 0.35 % strength,"contact 120 s, 25% EtOH",5.6
same,log reduction at 0.4 % strength,[4],7.2
"CC(=O)OCc1ccccc1 [Benzyl acetate, benzyl acetate]",log reduction at 0.25 % strength,[2],0.2
same,log reduction at 0.3 % strength,[3],0.5
same,log reduction at 0.35 % strength,"contact 120 s, 25% EtOH",1.3
same,log reduction at 0.4 % strength,[4],2.5
same,log reduction at 0.5 % strength,"contact 120 s, 25% EtOH",6.2
"O=c1ccc2ccccc2o1 [Coumarine, 2H-chromen-2-one]",log reduction at 0.5 % strength,"contact 120 s, 25% EtOH",0
same,log reduction at 0.75 % strength,"dose 0.75% w/v, contact 120 s, 25% EtOH",0.7
same,log reduction at 1 % strength,"contact 120 s, 25% EtOH",1.7
same,log reduction at 1.25 % strength,"contact 120 s, 25% EtOH",6.3
same,log reduction at 1.5 % strength,"contact 120 s, 25% EtOH",7.5
"OC/C=C/c1ccccc1 [Cinnamic alcohol, (2E)-3-phenyl-2-propen-1-ol]",log reduction at 0.25 % strength,[2],0.2
same,log reduction at 0.5 % strength,"contact 120 s, 25% EtOH",4.1
same,log reduction at 1 % strength,"contact 120 s, 25% EtOH",7.3
same,log reduction at 1.25 % strength,"contact 120 s, 25% EtOH",7.3
same,log reduction at 1.5 % strength,"contact 120 s, 25% EtOH",7.3
"CCC(C)(O)CCCC(C)C (centres unmarked) [Tetralinol, 3,7-Dimethyl-3-octanol]",log reduction at 0.075 % strength,"dose 0.075% w/v, contact 120 s, 25% EtOH",1.2
same,log reduction at 0.1 % strength,"contact 120 s, 25% EtOH",5
same,log reduction at 0.125 % strength,"contact 120 s, 25% EtOH",7.3
same,log reduction at 0.15 % strength,"contact 120 s, 25% EtOH",7.1
"C=C(C)[C@@H]1CC=C(CO)CC1 [Perycorolle, (S)-(−)-(4-Isopropenyl-1-cyclohexenyl)methanol]",log reduction at 0.1 % strength,"contact 120 s, 25% EtOH",-0.2
same,log reduction at 0.125 % strength,"contact 120 s, 25% EtOH",0.4
same,log reduction at 0.15 % strength,"contact 120 s, 25% EtOH",1.9
same,log reduction at 0.175 % strength,[1],6.4
same,log reduction at 0.2 % strength,"contact 120 s, 25% EtOH",7.2
"C=CCc1ccc(O)c(OC)c1 [Eugenol F, 2-Methoxy-4-(prop-2-en-1-yl)phenol]",log reduction at 0.2 % strength,"contact 120 s, 25% EtOH",0.3
same,log reduction at 0.25 % strength,[2],2.37
same,log reduction at 0.3 % strength,[3],4.9
same,log reduction at 0.35 % strength,"contact 120 s, 25% EtOH",7.6
"CC(C=O)Cc1ccc2c(c1)OCO2 (centres unmarked) [Heliopropanal, 3-(1,3-Benzodioxol-5-yl)-2-methylpropanal]",log reduction at 0.175 % strength,,0.1
same,log reduction at 0.25 % strength,,0.3
same,log reduction at 0.3 % strength,,1.5
same,log reduction at 0.4 % strength,,3.2
same,log reduction at 0.45 % strength,,5.2
"CC(CCO)CCc1ccccc1 (centres unmarked) [Phenylhexanol, 3-methyl-5-phenyl-1-pentanol]",log reduction at 0.1 % strength,"contact 120 s, 25% EtOH",1.2
same,log reduction at 0.125 % strength,"contact 120 s, 25% EtOH",3.9
same,log reduction at 0.15 % strength,"contact 120 s, 25% EtOH",6.1
same,log reduction at 0.175 % strength,[1],6.9
same,log reduction at 0.2 % strength,"contact 120 s, 25% EtOH",7.3
"Cc1ccc2c(c1)OCC(=O)CO2 [Calone, 7-methyl-2H-1,5-benzodioxepin-3(4H)-one]",log reduction at 0.5 % strength,"contact 120 s, 25% EtOH",0
same,log reduction at 0.7 % strength,"dose 0.7% w/v, contact 120 s, 25% EtOH",0.5
same,log reduction at 0.8 % strength,"dose 0.8% w/v, contact 120 s, 25% EtOH",2.9
same,log reduction at 0.9 % strength,"dose 0.9% w/v, contact 120 s, 25% EtOH",4.7
same,log reduction at 1.2 % strength,"dose 1.2% w/v, contact 120 s, 25% EtOH",6.9
CC(C)=CCC/C(C)=C/CO [Geraniol Pur],log reduction at 0.05 % strength,"contact 120 s, 25% EtOH",-0.2
same,log reduction at 0.1 % strength,"contact 120 s, 25% EtOH",2.7
same,log reduction at 0.125 % strength,"contact 120 s, 25% EtOH",5.3
same,log reduction at 0.15 % strength,"contact 120 s, 25% EtOH",7.1
"CC(C)=CCC/C(C)=C\CO [Nerol, (Z)-3,7-dimethyl-2,6-octadien-1-ol]",log reduction at 0.05 % strength,"contact 120 s, 25% EtOH",0.1
same,log reduction at 0.1 % strength,"contact 120 s, 25% EtOH",1.4
same,log reduction at 0.125 % strength,"contact 120 s, 25% EtOH",4
same,log reduction at 0.15 % strength,"contact 120 s, 25% EtOH",6.2
same,log reduction at 0.175 % strength,[1],7.4
"CC1=CCC(C(C)(C)O)CC1 (centres unmarked) [Terpineol Ord, 2-(4-Methylcyclohex-3-en-1-yl)propan-2-ol]",log reduction at 0.1 % strength,"contact 120 s, 25% EtOH",-0.1
same,log reduction at 0.2 % strength,"contact 120 s, 25% EtOH",1.9
same,log reduction at 0.25 % strength,[2],5.8
same,log reduction at 0.3 % strength,[3],7.4
same,log reduction at 0.4 % strength,[4],7.4
